In ChEMBL document CHEMBL1139029, “Synthesis and SAR of substituted tetrahydrocarbazole derivatives as new NPY-1 antagonists” (Bioorg Med Chem Lett, 2006):

target: T1, Neuropeptide Y receptor type 1 (Homo sapiens, UniProt P25929); experiment: Displacement of [125I]PYY from human recombinant NPY1 receptor expressed in CHO cells; assay type: cell-based; conditions: not given
T1 sequence (P25929 whole entry): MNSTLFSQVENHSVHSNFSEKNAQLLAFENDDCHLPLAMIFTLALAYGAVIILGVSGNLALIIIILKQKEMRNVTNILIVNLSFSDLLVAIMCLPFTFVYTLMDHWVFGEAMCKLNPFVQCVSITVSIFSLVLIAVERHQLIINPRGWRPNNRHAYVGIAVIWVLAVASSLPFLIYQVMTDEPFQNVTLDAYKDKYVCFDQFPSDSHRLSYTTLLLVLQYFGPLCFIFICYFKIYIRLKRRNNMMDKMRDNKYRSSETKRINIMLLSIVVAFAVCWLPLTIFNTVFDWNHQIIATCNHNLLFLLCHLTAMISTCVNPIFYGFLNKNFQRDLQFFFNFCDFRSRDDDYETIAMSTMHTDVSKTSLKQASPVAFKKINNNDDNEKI

Row | IC50 | Ki | SMILES
1 | 37.2 nM |  | O=C1c2c(n(CC3CCNCC3)c3ccccc23)[C@H](Oc2ccc(Cl)cc2)CC1N1CCN(CCO)CC1 (stereo partly specified)
2 | 1320 nM |  | CN1CCN(C2C[C@@H](Oc3ccc(Cl)cc3)c3c(c4ccccc4n3CCCN3CCCCC3)C2=O)CC1 (stereo partly specified)
3 | 25100 nM |  | CN1CCN(C2C[C@@H](Oc3ccc(Cl)cc3)c3c(c4ccccc4n3C)C2=O)CC1 (stereo partly specified)
4 | 93.3 nM |  | CNC1CCC(Cn2c3c(c4ccccc42)C(=O)C(N2CCN(C)CC2)C[C@H]3Oc2ccc(Cl)cc2)CC1 (stereo partly specified)
5 | 33.9 nM |  | CN1CCC(Cn2c3c(c4ccccc42)C(=O)C(N2CCN(C)CC2)C[C@H]3Oc2ccc(Cl)cc2)CC1 (stereo partly specified)
6 | 331 nM |  | O=C1c2c(n(CCCN3CCCCC3)c3ccccc23)[C@H](Oc2ccc(Cl)cc2)CC1N1CCNCC1 (stereo partly specified)
7 | 3890 nM |  | CN1CCN(C2C[C@@H](Oc3ccc(Cl)cc3)c3c(c4ccccc4n3CC3CCNCC3)C2=O)CC1=O (stereo partly specified)
8 | 100 nM |  | CC1(F)CCN(C2C[C@@H](Oc3ccc(Cl)cc3)c3c(c4ccccc4n3CC3CCNCC3)C2=O)CC1 (stereo partly specified)
9 | 49 nM |  | CN1CCN([C@H]2C[C@@H](Oc3ccc(Cl)cc3)c3c(c4ccccc4n3CC3CCNCC3)C2=O)CC1
10 | 1860 nM |  | O=C1c2c(n(CC3CCNCC3)c3ccccc23)[C@H](Oc2ccc(Cl)cc2)CC1N1CCC(F)(F)CC1 (stereo partly specified)
11 | 437 nM |  | CN1CCN(C2C[C@@H](Oc3ccc(Cl)cc3)c3c(c4ccccc4n3C[C@H]3CCN(C)C[C@@H]3F)C2=O)CC1 (stereo partly specified)
12 | 170 nM | 100 nM | CN1CCN(C2C[C@@H](Oc3ccc(Cl)cc3)c3c(c4ccccc4n3C[C@@H]3CCN(C)C[C@@H]3F)C2=O)CC1 (stereo partly specified)
13 | 15800 nM |  | O=C1c2c(n(CCCN3CCCCC3)c3ccccc23)[C@H](Oc2ccc(Cl)cc2)CC1N1CCOCC1 (stereo partly specified)
14 | 646 nM |  | CC1CCN(C2C[C@@H](Oc3ccc(Cl)cc3)c3c(c4ccccc4n3CCCN3CCCCC3)C2=O)CC1 (stereo partly specified)
15 | 97.7 nM |  | CC1CCN([C@@H]2C[C@@H](Oc3ccc(Cl)cc3)c3c(c4ccccc4n3CC3CCNCC3)C2=O)CC1
16 | 776 nM |  | CN1CCN([C@@H]2C[C@@H](Oc3ccc(Cl)cc3)c3c(c4ccccc4n3CC3CCNCC3)C2=O)CC1
17 | 7240 nM |  | O=C1CC[C@@H](Oc2ccc(Cl)cc2)c2c1c1ccccc1n2CCCN1CCCCC1
18 | 240 nM |  | CN1CCN(C2C[C@@H](Oc3ccc(Cl)cc3)c3c(c4ccccc4n3C[C@H]3CCNC[C@@H]3F)C2=O)CC1 (stereo partly specified)
19 | 186 nM |  | CN1CCN(C2C[C@@H](Oc3ccc(Cl)cc3)c3c(c4ccccc4n3C[C@@H]3CCNC[C@@H]3F)C2=O)CC1 (stereo partly specified)
20 | 3390 nM |  | O=C1c2c(n(CCCN3CCCCC3)c3ccccc23)[C@H](Oc2ccc(Cl)cc2)CC1N1CCCCC1 (stereo partly specified)
21 | 22.4 nM |  | CC1CCN([C@H]2C[C@@H](Oc3ccc(Cl)cc3)c3c(c4ccccc4n3CC3CCNCC3)C2=O)CC1

tested on: not listed separately; experiment: Plasma clearance in CD rat at 1 mg/kg, iv; assay type: ADME, organism-based; parameters: dose 1 mg/kg, route intravenous; conditions: not given

Row | clearance | SMILES
22 | 59 mL/min/kg | CN1CCC(Cn2c3c(c4ccccc42)C(=O)C(N2CCN(C)CC2)C[C@H]3Oc2ccc(Cl)cc2)CC1 (stereo partly specified)

tested on: not listed separately; experiment: Ratio of drug level in brain against plasma in CD rat at 1 mg/kg, iv; assay type: ADME, organism-based; parameters: dose 1 mg/kg, route intravenous; conditions: brain and plasma

Row | Kp | SMILES
23 | 0.8 | CN1CCC(Cn2c3c(c4ccccc42)C(=O)C(N2CCN(C)CC2)C[C@H]3Oc2ccc(Cl)cc2)CC1 (stereo partly specified)

tested on: not listed separately; experiment: Oral bioavailability in CD rat at 5 mg/kg, po; assay type: ADME, organism-based; conditions: in vivo

Row | bioavailability | SMILES
24 | 27% | CN1CCC(Cn2c3c(c4ccccc42)C(=O)C(N2CCN(C)CC2)C[C@H]3Oc2ccc(Cl)cc2)CC1 (stereo partly specified)
25 | 0% | CN1CCN([C@H]2C[C@@H](Oc3ccc(Cl)cc3)c3c(c4ccccc4n3CC3CCNCC3)C2=O)CC1
